# “Also recorded” adds a separate entry of the source.
# How the values were obtained:
# [1] = test system: hair follicle regression (catagen) in back skin; assay: In vivo contraction inhibition (topical application on back skin during catagen); design: species or system mice; conditions: 1 mM in 20 μl DMSO, topical twice daily P13 to P19, back skin analysed at P20
# Excerpt: To determine whether smooth muscle-like contraction is a main function of the DS to propagate hair follicle regression in vivo, the MLCK pathway was blocked by twice-daily topical application of ML7 throughout catagen on the back skin of mice (FIG. 3G). On the contralateral vehicle control side, follicles regressed normally into telogen with the DP niche relocated next to the SC reservoir (FIG. 3H). […] However, in contrast to ablated follicles, the DS as expected surrounds follicles including DP. […] Patches of lateral back skin measuring 1×1 cm of P13 mice (2 patches per mouse) were clipped and then shaved with a razor blade until no external hair shafts within patches remained. Vehicle-only control DMSO or ML7 HCl (Tocris) dissolved in an equal volume of DMSO (1 mM in 20 μl) was pipetted onto hairless patches and locally rubbed into the skin using a glass rod until visibly dry. Topical applications were performed twice daily from P13 to P19, once in the morning and once in the evening separated by 12 hours. Pieces of back skins including treated areas were then harvested at P20 for downstream analysis.
# [2] = test system: microdissected hair follicles (dermal sheath contraction); assay: Ex vivo hair follicle contraction assay (live imaging of microdissected follicles, high K+ depolarization); type: cell-based, mouse; conditions: preincubation with 200 μM ML7 HCl for 1 hour, follicles from P8 back skin, hydrochloride
# Procedure: Whether DS cells can functionally contract in a smooth muscle-like fashion through Ca2+-dependent MLCK activation was then explored. Isolated, short-term cultured DS cells were membrane depolarized by an extracellular K+ spike to activate voltage-gated Ca2+ channels in the presence of Fluo8 fluorescent Ca2+ indicator. The switch from high Na+ to high K+ media led to effective Ca2+ influx within 1.5 minutes (FIG. 3A). […] Next, whether the DS can functionally contract and compress intact hair follicles isolated by microdissection (FIG. 3C) was tested.
# Hair follicles were microdissected from P8 back skin under a Leica S6E stereomicroscope in PBS and collected in 24-well plates. Media was then changed to Krebs buffer+glucose with or without 200 μM ML7 HCl (Tocris) and incubated for 1 hour at 37° C. Single follicles were then transferred to a 6 cm petri dishes immersed in Krebs buffer+glucose and immobilized by embedding the hair shaft tips in a 5×5 mm piece of parafilm. Follicles were then imaged under brightfield illumination on a Leica inverted DM6000 microscope in an enclosed live cell chamber at 37° C. with 5% CO2. Images were taken with a 10× air lens with time intervals of 10 seconds. During imaging, media was exchanged for Krebs buffer+glucose with KCl supplanting NaCl and follicles were refocused when necessary, which took a duration of no more than 10 seconds. […]
smiles,measurement,setting,value
"Cl.O=S(=O)(c1cccc2c(I)cccc12)N1CCCNCC1 [ML7, hexahydro-1-[(5-iodo-1-naphthalenyl)sulfonyl]-1H-1,4-diazepine hydrochloride]",DP niche relocation to the stem cells,[1],the DP remains at the tip of stalled follicles
same,hair follicle regression into telogen (stalled follicles),"[1]; contralateral DMSO vehicle control, hydrochloride",striking failure of regression with long stalled follicles stranded deep in the dermis; also recorded: blocks hair follicle regression in vivo
same,reduction of follicle widths in high K+ (follicle contraction),[2],effectively blocked
